Source: US7402683B2, “Cinnamic acid amides” (Bayer HealthCare AG, priority 2002, dated 2008)

Tests used:
[1] = system: Staphylococcus aureus 133; assay: Determination of the minimum inhibitory concentration (MIC), liquid dilution test; assay type: cell-based; conditions: Isosensitest medium, 10^5 organisms per ml, 37° C., 18-24 hours; lowest concentration with no visible bacterial growth
Protocol: (§1) Determination of the Minimum Inhibitory Concentration (MIC):
(§2) The MIC is determined in a liquid dilution test. Overnight cultures of the test organisms are diluted to a cell count of 10^5 organisms per ml in Isosensitest medium (Difco, Irvine, USA) and are incubated with dilutions of the test substances (1:2 dilution stages). Exceptions are the tests with S. pneumoniae G9A, which are conducted in BHI broth (Difco) plus 20% bovine serum, and with H. influenzae, which are conducted in BHI broth (Difco) plus 20% bovine serum, 10 μg/ml hemin and 1% Isovitale (Becton Dickinson, N.J., USA).
(§3) The cultures are incubated at 37° C. for 18-24 hours; S. pneumoniae and H. influenzae in the presence of 8-10% CO2.
(§4) The lowest concentration of each substance at which there is no longer any visible bacterial growth is defined as the MIC. The MICs in μmol/1 of some compounds of the invention against a series of test organisms are listed by way of example in the table below.

[2] = system: Haemophilus influenzae Spain 7; assay: as above; assay type: cell-based; conditions: BHI broth plus 20% bovine serum, 10 μg/ml hemin and 1% Isovitale, 37° C., 18-24 hours, 8-10% CO2
Protocol: as §1, §2, §3, §4

[3] = system: bacteria; conditions: described in the literature; cited from earlier work

SMILES	MIC Staphylococcus aureus 133 [1]	MIC Haemophilus influenzae Spain 7 [2]	antibacterial activity [3]
CC(C)[C@H](NC(=O)C[C@H](NC(=O)/C=C/c1ccc2c(c1)OCO2)c1ccccc1)C(=O)[C@@H]1C(=O)NC(=O)[C@H]1C [Example 1, (2E)-3-(1,3-Benzodioxol-5-yl)-N-{(1S)-3-[((1S)-2-methyl-1-{[(3R,4S)-4-methyl-2,5-dioxo-3-pyrrolidinyl]carbonyl}propyl)amino]-3-oxo-1-phenylpropyl}-2-propenamide]	3.9 μmol/1	31.3 μmol/1	–
C[C@@H]1C(=O)NC(=O)[C@H]1C(=O)[C@@H](NC(=O)C[C@H](NC(=O)/C=C/c1ccc2c(c1)OCO2)c1ccccc1)C(C)(C)C [Example 2, (2E)-3-(1,3-Benzodioxol-5-yl)-N-{(1S)-3-[((1S)-2,2-dimethyl-1-{[(3R,4S)-4-methyl-2,5-dioxo-3-pyrrolidinyl]carbonyl}propyl)amino]-3-oxo-1-phenylpropyl}-2-propenamide]	7.8 μmol/1	31.3 μmol/1	–
CC(C)[C@H](NC(=O)CC(NC(=O)/C=C/c1ccc2c(c1)OCO2)c1ccc2c(c1)OCCO2)C(=O)[C@@H]1C(=O)NC(=O)[C@H]1C (stereo partly drawn) [Example 5, (2E)-3-(1,3-Benzodioxol-5-yl)-N-{1-(2,3-dihydro-1,4-benzodioxin-6-yl)-3-[((1S)-2-methyl-1-{[(3R,4S)-4-methyl-2,5-dioxo-3-pyrrolidinyl]carbonyl}propyl)amino]-3-oxopropyl}-2-propenamide]	7.8 μmol/1	3.9 μmol/1	–
CC(C)[C@H](NC(=O)C[C@H](NC(=O)/C=C/c1ccsc1)c1ccccc1)C(=O)[C@@H]1C(=O)NC(=O)[C@H]1C [Example 11]	7.8 μmol/1	62.5 μmol/1	–
C[C@@H]1C(=O)NC(=O)[C@H]1C(=O)[C@@H](NC(=O)C[C@H](NC(=O)/C=C/c1ccc2c(c1)OCO2)c1ccccc1)C1CCCC1 [Example 31, (2E)-3-(2H-Benzo[d]1,3-dioxolan-5-yl)-N-((1S)-2-{N-[(1S)-2-((4S,3R)-4-methyl-2,5-dioxoazolin-3-yl)-1-cyclopentyl-2-oxoethyl]carbamoyl}-1-phenylethyl)prop-2-enamide]	<1 μmol/1	31.3 μmol/1	–
C[C@@H]1C(=O)N(N)C(=O)[C@H]1C(=O)[C@@H](NC(=O)C[C@H](NC(=O)/C=C/c1ccc(C#N)cc1)c1ccccc1)C1CCCC1 [Example 34, (2E)-N-((1S)-2-{N-[(1S)-2-((4S,3R)-1-amino-4-methyl-2,5-dioxoazolidin-3-yl)-1-cyclopentyl-2-oxoethyl]carbamoyl}-1-phenylethyl)-3-(4-cyanophenyl)prop-2-enamide]	<1 μmol/1	7.8 μmol/1	–
CC(C)[C@H](NC(=O)CC(NC(=O)/C=C/c1ccc2c(c1)OCO2)c1ccc2ccccc2c1)C(=O)[C@@H]1C(=O)NC(=O)[C@H]1C (some centres unmarked) [Example 92]	<1 μmol/1	15.6 μmol/1	–
C/C=C/C=C/C=C/C(=O)N[C@@H](CC(=O)N[C@H](C(=O)[C@@H]1C(=O)NC(=O)[C@H]1C)C(C)C)c1ccccc1 [andrimid]	–	–	having antibacterial activity
C/C=C/C=C/C(=O)N[C@@H](CC(=O)N[C@H](C(=O)[C@@H]1C(=O)NC(=O)[C@H]1C)C(C)C)c1ccccc1 [moiramide B]	–	–	having antibacterial activity
C/C=C/C=C/C=C/C(=O)N[C@@H](CC(=O)N[C@H](C(=O)[C@@]1(O)C(=O)NC(=O)[C@H]1C)C(C)C)c1ccccc1 [moiramide C]	–	–	inactive
